# Literature values, collected in US20060024740A1 (priority 2002, published 2006).
# Legend:
# Tapesia yallundae = tested on: Tapesia yallundae; design: key: S = Sensitive; R = Resistant
# Tapesia acuformis = tested on: Tapesia acuformis; design: key: S = Sensitive; R = Resistant
Compound,Fungicide Sensitivity (Tapesia yallundae),Fungicide Sensitivity (Tapesia acuformis)
"COC(=O)Nc1nc2ccccc2[nH]1 [Carbendazim, carbendazim]",R,S and R
Cc1cc(C2CC2)nc(Nc2ccccc2)n1 [Cyprodinil],S,S
CCCN(CCOc1c(Cl)cc(Cl)cc1Cl)C(=O)n1ccnc1 [Prochloraz],R and S,S and R
"CC(C)(C)C(O)C(Oc1ccc(Cl)cc1)n1cncn1 (centres unmarked) [Triadimenol, triadimenol]",R and S,R
